Measured values reported in patent publication US20200113920A1, “COMPOSITIONS AND METHODS FOR TREATMENT OF MICROSPORIDIA INFECTION USING PROTEASOME INHIBITORS INCLUDING IXAZOMIB” (BARNARD COLLEGE, priority 2018, published 2020).
Structures can show the parent of a compound that is named as a salt. Non-standard residues stand in square brackets, D forms with d. Residues, ends and D or L forms follow the SMILES beside them. ξ: configuration not given here. *: point of attachment. Cbz = O=C(OCc1ccccc1)*; ξL = CC(C)CC(N)C(=O)O

Tests used:
N. ceranae [1] = assay: N. ceranae infection in naturally infected bees from a highly infected colony; format: in vivo, Nosema ceranae; details: bees from a highly infected colony (prevalence>90% infected); fed 2 days vs DMSO vehicle control
N. ceranae [2] = assay: N. ceranae infection in newly eclosed, experimentally infected honey bees fed proteasome inhibitors (spore counting and quantitative PCR); format: in vivo, Nosema ceranae; details: for efficacy against N. ceranae infection relative to Fumagillin: feeding bees during N. ceranae infection; for infection intensity after cessation of treatment (rebound): four days treatment, then sucrose solution alone for 4 days, spore counting and DNA
Description: To standardize experiments by using age-matched bees and to allow for longer treatment periods, we used newly enclosed bees and tested the effects of a number of commercially available proteasome inhibitors, including Ixazomib (MLN2238) (purchased from Selleck Chemicals), Ixazomib citrate (MLN9708) (purchased from Selleck Chemicals), Oprozomib (ONX 0912) (purchased from Selleck Chemicals), Dexazomib (purchased from Selleck Chemicals), Carfilzomib (purchased from Selleck Chemicals), Bortezomib (purchased from Selleck Chemicals), Epoxomicin (purchased from Selleck Chemicals), HMB-Val-Ser-Leu-VE (purchased from Cayman Chemical), MG-262 (purchased from APExBIO), and the two stereoisomers of MG132 (S and R) (purchased from Cayman Chemical) as well as Fumagillin (purchased from Selleck Chemicals). On day two post-eclosion, N. ceranae spores (5×10^6 ml) were fed to bees in sucrose solution ad libitum (Fries et al. 2013) for 48 hours. At 3 days post infection, honey bees in individual cages were fed sucrose solution containing one of the pharmacologic agents at 40 μM or vehicle control alone. For each trial, we tested pairs of novel compounds simultaneously with an untreated group, a Fumagillin treated group, and an Ixazomib-treated group. After 4 days of drug feeding, honey bee midguts were dissected, and infection levels were assessed by spore counting and quantitative PCR.
We focused on ixazomib and ixazomib citrate for further experiments. Again using newly eclosed bees, we treated infected bees for up to eight days with ixazomib, Fumagillin, or sucrose solution alone, and measured infection level by spore counting and DNA on days 4 and 8 post initiation of treatment (FIGS. 4A and 4B). […] Finally, the goal was to determine whether any rebound of N. ceranae infection was observed after cessation of treatment by ixazomib and ixazomib citrate as has been reported for Fumagillin (Huang et al. 2013). Infected newly eclosed bees were treated with sucrose solution containing ixazomib, ixazomib citrate, Fumagillin, or vehicle alone for four days. We then switched all cages to sucrose solution alone for 4 days and then measured infection level by spore counting and DNA. We observed that infection intensity stayed the same for bees receiving sucrose solution for the whole experiment, increased for those bees treated with Fumagillin first, and decreased for those bees fed either ixazomib or ixazomib citrate first (FIGS. 4E and 4F).

honey bees = assay: Honey bee survival during drug feeding; format: in vivo, Apis mellifera; details: 40 μM in sucrose solution for 10 days starting day 3 post-eclosion, newly emerged bees
Procedure: To assess the impact of ixazomib treatment on age-matched honey bees, newly emerged bees were fed sucrose solution containing ixazomib, ixazomib citrate, Fumagillin (all at 40 μM), or vehicle alone for 10 days starting on day 3 post-eclosion.

Encephalitozoon hellem = assay: E. hellem infection of RK-13 cells, qPCR-based assay of pathogen and host cell genome equivalents; details: four-day infection of RK-13 cells
Description: (§1) Thus, it was hypothesized that pharmacological inhibition of the UPS will reduce infection intensity of diverse microsporidia in their respective host species. To test this hypothesis, we chose to focus on Encephalitozoon hellem, a microsporidia species first described as the cause of keratoconjunctivitis in 3 AIDS patients in 1991 (Didier et al. 1991) and subsequently observed in numerous immunocompromised patients (Weiss and Becnel, 2014). The genome of E. hellem has been sequenced (Pombert et al. 2012) and it is easily culturable (Molestina et al. 2014), making it ideal for such studies.

[3] = test system: rabbit kidney cell line (RK-13) cells; assay: Rabbit cell numbers in E. hellem-infected RK-13 culture; format: cell-based; details: 10-100 nM ixazomib; four-day infection of RK-13 cells
Description: as §1

N. ceranae [4] = assay: N. ceranae infection intensity in experimentally infected honey bees fed drug in sucrose syrup; format: in vivo, Nosema ceranae
Procedure: that works by reacting with the β5 subunit responsible for chymotrypsin-like activity (Goldberg, 2012). After experimentally infecting bees, infected bees were fed sucrose syrup or sucrose syrup containing 500 μM MG132 for 2 days starting on day 6 post infection. On day 8 post infection, spore levels were then measured using light microscopy to determine the effects of proteasome inhibition on N. ceranae infection intensity. […] MG132 is a poorly bioavailable proteasome inhibitor with known toxicity in multicellular eukaryotes. […] Significant effort has been directed towards finding novel strategies for targeting the proteasome (Goldberg, 2012; Śledź and Baumeister, 2016; Cromm and Crews, 2017), providing a number of pharmacologic agents with better efficacy, improved bioavailability, and increased selectivity. We first tested the ability of ixazomib, a modified peptide boronic acid that binds the β5 site of the 20 S proteasome and inhibits proteasome activity (Kupperman et al. 2010), to reduce N. ceranae infection in honey bees. Ixazomib is commercially available (e.g., from Selleck Chemincals) and has the structure of […]

CC(C)C[C@H](NC(=O)CNC(=O)c1cc(Cl)ccc1Cl)B(O)O [Ixazomib]
N. ceranae infection by both spore-counting and DNA analysis (N. ceranae [1]): striking reduction
N. ceranae infection intensity by spore counting and DNA analysis (N. ceranae [2]; 2.5 μM): diminished, but still robust, reduction in infection intensity
impact on N. ceranae infection levels (ranking among tested inhibitors) (N. ceranae [2]; 40 μM, 4 days of drug feeding, spore counting and quantitative PCR): most effective at reducing infection levels
efficacy against N. ceranae infection relative to Fumagillin (N. ceranae [2]): better efficacy than Fumagillin
infection intensity after cessation of treatment (rebound) (N. ceranae [2]): decreased
N. ceranae infection level, dose and time dependence (N. ceranae [2]; treated up to eight days, measured days 4 and 8, spore counting and DNA analysis (FIGS. 4A-4F)): stably reduces N. ceranae infection level in a dose and time dependent manner
honey bee survival (honey bees): no differences in the survival between treatments
E. hellem infection intensity (Encephalitozoon hellem; 10-100 nM ixazomib, preliminary results): reduces E. hellem infection intensity
rabbit cell numbers [3]: without substantial reduction in rabbit cell numbers

CC(C)C[C@H](NC(=O)CNC(=O)c1cc(Cl)ccc1Cl)B1OC(=O)C(CC(=O)O)(CC(=O)O)O1 [Ixazomib citrate]
honey bee survival (honey bees): no differences in the survival between treatments

CC(C)CC(NC(=O)[C@H](CC(C)C)NC(=O)OCc1ccccc1)C(=O)N[C@H](C=O)CC(C)C (stereo partly drawn) [MG132] (Cbz-Leu-[ξL]-Leu-aldehyde)
N. ceranae infection intensity (spore levels by light microscopy) (N. ceranae [4]; experimentally infected bees, 500 μM MG132 in sucrose syrup for 2 days (48 hours) from day 6 post infection, measured day 8): dramatic reduction in infection intensity
efficacy against N. ceranae infection relative to Fumagillin (N. ceranae [2]): not as efficacious as Fumagillin

CO[C@@H]1[C@H](OC(=O)/C=C/C=C/C=C/C=C/C(=O)O)CC[C@]2(CO2)[C@H]1[C@@]1(C)O[C@@H]1CC=C(C)C [Fumagillin]
N. ceranae infection intensity, Fumagillin compared with MG132 (N. ceranae [4]; two days of feeding Fumagillin, data not shown): similar
infection intensity after cessation of treatment (rebound) (N. ceranae [2]): increased
honey bee survival (honey bees): no differences in the survival between treatments
E. hellem infection intensity, Fumagillin compared with ixazomib (Encephalitozoon hellem; 50 ng/ml Fumagillin): comparable

CCOC(=O)/C=C/[C@H](CC(C)C)NC(=O)[C@H](CO)NC(=O)[C@@H](NC(=O)c1cccc(O)c1C)C(C)C [HMB-Val-Ser-Leu-VE]
infection level by relative genome equivalents (N. ceranae [2]; 40 μM in sucrose solution, from 3 days post infection, 4 days of drug feeding, midguts, quantitative PCR): all tested proteasome inhibitors except HMB-Val-Ser-Leu-VE
